The values below come from patent US4556676A, “Antidepressant derivatives of trans-4-phenyl-1,2,3,4-tetrahydro-1-naphthalenamine” (priority 1980, dated 1985).

Assay [1] has as its system mice. The experiment in a line: Reduction of behavioral despair in vivo (modified Porsolt mouse swim test). The conditions noted are these: sc, read-out: MPE50. The arrangement: species or system Swiss-Webster CD male mice.
Method: A number of Swiss-Webster CD male mice weighing 25-30 g. (Charles River Laboratories, Inc.; Wilmington, Mass.) were housed under standard laboratory conditions for at least one week prior to experimentation. […] One hour later the mice were placed individually in 1 liter beakers containing 7 cm. of 25° C. water. Beginning at 2 min. after immersion, each mouse was observed every 30 sec. for the presence of immobility, characterized as floating motionless in the water. A total of ten observations were made, each being scored as "0=animal moving, swimming, attempting to escape" or "1=animal immobile". The number of positive observations for each mouse was then totaled and a mean immobility score calculated for the group of ten.
Assay [2] relates to 5-hydroxytryptophan-induced tremors. The experiment in a line: Potentiation of 5-hydroxytryptophan-induced behavioral symptoms (tremors) in vivo. Particulars: for ED50: Mus musculus; for ED50 (tremors): then 100 mg./kg. i.p. 5HTP one hour later, Hydrochloride. The arrangement: species or system Swiss-Webster CD male mice.
Method: The mice were rated for the presence of this symptom by a "blinded observer" at 10-20 min. after 5HTP treatment.
The test system of assay [3] is synaptosomal uptake of dopamine (DA). The experiment in a line: Blockade of synaptosomal uptake of dopamine (DA) in vitro, rat corpus striatum. The format is biochemical, Sprague-Dawley CD male rats. Particulars: rat corpus striatum synaptosomes. As to the method: (§1) Sprague-Dawley CD male rats weighing 180-220 g. (Charles River Laboratories, Inc.; Wilmington, Mass.) were used in this procedure. A crude synaptosomal fraction of rat corpus striatum (for 5HT and DA uptake) or hypothalmus (for NE uptake) tissue was prepared by homogenizing tissue (25 ml./g. wet) in ice-cold 0.32M sucrose containing 1 mg./ml. glucose, 0.0001M EDTA and tris(hydroxymethyl)aminomethane to pH 7.4. The homogenate was centrifuged at 1000×g for 10 min. at 0°-4° C., the pellet discarded and the supernatant centrifuged at 17,000×g for 20 min. at 0°-4° C. The resulting pellet was resuspended in the ice-cold 0.32M sucrose pH 7.4 solution at 10 ml./g. original tissue (wet) for corpus striatum and 5 ml./g. original tissue (wet) for hypothalmus. […] Duplicate 0.1 ml. aliquots of the tissue suspension were incubated for 10 min. at 37° C. with 0.02 ml. of a solution containing a known quantity of the named test compound and 1.0 ml. of the incubation buffer containing additionally 1 mg./ml. glucose and 0.0001 mM labeled monoamine (^14 C-5HT, ^14 C-DA or ^3 H-NE). After incubation, the mixtures were filtered through 0.45 micron Millipore filters and the filters washed with the incubation buffer. […] Uptake was calculated as picomoles 5HT, DA or NE per mg. protein (protein was determined by measurement with Folin phenol reagent).

The subject of assay [4] is synaptosomal uptake of norepinephrine (NE). The experiment in a line: Blockade of synaptosomal uptake of norepinephrine (NE) in vitro, rat hypothalmus. Particulars: rat hypothalmus synaptosomes. The format is biochemical, Sprague-Dawley CD male rats. The procedure: as §1
Assay [5] relates to synaptosomal uptake of serotonin (5HT). The experiment in a line: Blockade of synaptosomal uptake of serotonin (5HT) in vitro, rat corpus striatum. The format is biochemical, Sprague-Dawley CD male rats. Particulars: rat corpus striatum synaptosomes, 5HT uptake. As to the method: as §1
In assay [6] the test system is uptake of serotonin. The conditions noted are these: known drugs; cited from earlier work.
[7] abbreviates: mice, oral, no observed tremors at 32 mg./kg., highest dose tested, read-out: ED50 (tremors), footnoted.
Where [8] appears, read: mice, subcutaneous, 1 hour before test.
Where [9] appears, read: po, 1 h, read-out: ED50 (tremors), mice, oral, then 100 mg./kg. i.p. 5HTP one hour later.

Structures can show the parent of a compound that is named as a salt. Where two headings read alike, the source gives them in different places.

Turning to `CN[C@@H]1CC[C@@H](c2ccc(Cl)c(Cl)c2)c2ccccc21` (relative stereo) [Example 1, Trans-(1S)(1R)-N-methyl-4-(3,4-diclorophenyl)-1,2,3,4-tetrahydro-1-naphthalenamine Hydrochloride], the ED50 was 1.5 mg/kg in assay [1] (1 h) and 3.2 to 10 mg/kg in assay [2] (po, 1 h, read-out: ED50 (oral dosage level at which tremors elicited), mice, oral, then 100 mg./kg. i.p. 5HTP one hour later, tremors).
As usually defined, the IC50 is the midpoint of a concentration-inhibition curve. `CN[C@@H]1CC[C@@H](c2ccc(Cl)cc2)c2ccccc21.Cl` (relative stereo) [Example 4, Trans-N-methyl-4-(4-chlorophenyl)-1,2,3,4-tetrahydro-1-naphthalenamine Hydrochloride] gave an IC50 in assay [3] (Hydrochloride) of 110 nM. For the same molecule, the “ED50 (tremors)” value in assay [2] (mice, oral) is listed as 10-32 mg./kg. - oral.
In the case of `CN[C@@H]1CC[C@@H](c2ccc(Cl)cc2)c2ccccc21.Cl` (relative stereo) [Example 5, Trans-N-methyl-4-(4-chlorophenyl)-1,2,3,4-tetrahydro-1-naphthalenamine Hydrochloride], the ED50 in assay [2] (setting [7]) is over 32 mg/kg.
Consider `CN[C@@H]1CC[C@@H](c2ccc(Cl)cc2)c2ccccc21.Cl` (relative stereo) [Example 6, Trans-N-methyl-4-(4-chlorophenyl)-1,2,3,4-tetrahydro-1-naphthalenamine Hydrochloride], for which, in assay [1] (setting [8]), the ED50 was 0.88 mg/kg. Further, the “ED50 (tremors)” value in assay [2] (mice, oral) is 3.2-10 mg./kg. - oral.
Take `CN[C@@H]1CC[C@@H](c2ccc(F)cc2)c2ccccc21` (relative stereo) [Example 7, Trans-(1S)(1R)-N-methyl-4-(4-fluorophenyl)-1,2,3,4-tetrahydro-1-naphthalenamine Hydrochloride]: the IC50 was determined as 220 nM in assay [3] and 27 nM in assay [4]. Further, the ED50 was 2.3 mg/kg in assay [1] (1 h) and over 32 mg/kg in assay [2] (po, read-out: ED50 (tremors), footnoted, mice, oral, no observed tremors at 32 mg./kg., highest dose tested).
As to `CN[C@@H]1CC[C@@H](c2ccc(C(F)(F)F)cc2)c2ccccc21` (relative stereo) [Example 8], the IC50 worked out at 4400 nM in assay [3] and 690 nM in assay [4]. The ED50 in assay [1] (setting [8]) is over 10 mg/kg; in assay [2] (setting [9]) it was 10 to 32 mg/kg.
Take `CN[C@@H]1CC[C@@H](c2cccc(C(F)(F)F)c2)c2ccccc21` (relative stereo) [Example 9, Trans-(1S)(1R)-N-methyl-4-(3-trifluoromethylphenyl)-1,2,3,4-tetrahydro-1-naphthalenamine Maleate]: the IC50 turned out to be 2600 nM in assay [3] and 260 nM in assay [4]. The ED50 in assay [1] (1 h) is over 32 mg/kg; in assay [2] (setting [9]), 10 to 32 mg/kg.
`CN[C@@H]1CC[C@@H](c2ccc(Cl)c(C(F)(F)F)c2)c2ccccc21` (relative stereo) [Example 10] showed an IC50 in assay [3] of 7300 nM. The ED50 was under 32 mg/kg in assay [1] (setting [8]) and 10 to 32 mg/kg in assay [2] (setting [9]).
Regarding `CN[C@@H]1CC[C@@H](c2ccc(Cl)cc2)c2ccc(Cl)cc21` (relative stereo) [Example 11, Trans-(1S)(1R)-N-methyl-4-(4-chlorophenyl)-7-chloro-1,2,3,4-tetrahydro-1-naphthalenamine Hydrochloride], the IC50 in assay [5] turned out to be 160 nM; in assay [3] it was 45 nM; in assay [4], 28 nM. For the same molecule, in assay [1] (setting [8]), the ED50 came out at 6.4 mg/kg.
Regarding `CN[C@@H]1CC[C@@H](c2ccc(Br)cc2)c2ccccc21` (relative stereo) [Example 12, Trans-(1S)(1R)-N-methyl-4-(4-bromophenyl)-1,2,3,4-tetrahydro-1-naphthalenamine Hydrochloride], the 50% inhibitory concentration (IC50) in assay [5] turned out to be 90 nM; in assay [3], 80 nM; in assay [4], 29 nM.
For the molecule `CN[C@@H]1CC[C@@H](c2ccc(OC)cc2)c2ccccc21` (relative stereo) [Example 13, Trans-(1S)(1R)-N-methyl-4-(4-methoxyphenyl)-1,2,3,4-tetrahydro-1-naphthalenamine Hydrochloride], the concentration for half-maximal inhibition (IC50) is 400 nM in assay [3] and 150 nM in assay [4].
Take `CN[C@@H]1CC[C@@H](c2ccccc2OC)c2ccccc21` (relative stereo) [Example 14]: the IC50 in assay [5] turned out to be 4500 nM; in assay [3], 5700 nM; in assay [4] it was 480 nM. Also, the ED50 in assay [1] (setting [8]) and in assay [2] (setting [7]) was over 32 mg/kg in each case.
`CN[C@@H]1CC[C@@H](c2cccc(OC)c2)c2ccccc21` (relative stereo) [Example 15]: the IC50 in assay [5] was determined as 340 nM; in assay [3], 530 nM; in assay [4], 60 nM.
`CN[C@@H]1CC[C@@H](c2ccc(Cl)cc2Cl)c2ccccc21` (relative stereo) [Example 16, Trans-(1S)(1R)-N-methyl-4-(2,4-dichlorophenyl)-1,2,3,4-tetrahydro-1-naphthalenamine Hydrochloride] showed an IC50 in assay [3] of 6100 nM.
For `CN[C@@H]1CC[C@@H](c2ccc(Cl)cc2)c2ccc(OC)cc21` (relative stereo) [Example 17, Trans-(1S)(1R)-N-methyl-4-(4-chlorophenyl)-7-methoxy-1,2,3,4-tetrahydro-1-naphthalenamine Hydrochloride], the concentration for half-maximal inhibition (IC50) came out at 150 nM in assay [5], 42 nM in assay [3] and 17 nM in assay [4].
For the molecule `CN(C)[C@@H]1CC[C@@H](c2cccc(C(F)(F)F)c2)c2ccccc21` (relative stereo) [Example 18, Trans-(1S)(1R)-N,N-dimethyl-4-(3-trifluoromethylphenyl)-1,2,3,4-tetrahydro-1-naphthalenamine Maleate], the values for the IC50 in assay [5], in assay [3] and in assay [4] were 220 nM, 6100 nM and 1400 nM, respectively.
Take `CN(C)[C@@H]1CC[C@@H](c2ccc(C(F)(F)F)cc2)c2ccccc21` (relative stereo) [Example 19]: the IC50 in assay [3] is 9800 nM; in assay [4] it was 4700 nM. Besides, in assay [2] (setting [9]), the ED50 lay within 3.2 to 10 mg/kg.
As to `CN(C)[C@@H]1CC[C@@H](c2ccc(Cl)cc2)c2ccccc21` (relative stereo) [Example 20], the figures for the IC50 in assay [3] and in assay [4] were 380 nM and 130 nM, respectively.
Regarding `CN(C)[C@@H]1CC[C@@H](c2ccc(Cl)c(Cl)c2)c2ccccc21` (relative stereo) [Example 20a], the IC50 in assay [3] was 170 nM.
As to `CN[C@@H]1CC[C@@H](c2ccccc2)c2ccccc21` (relative stereo) [I, Trans-(1S)(1R)-N-- methyl-4-phenyl-1,2,3,4-tetrahydro-1-naphthalenamine hydrochloride, reference compound], the IC50 in assay [5] is 1500 nM; in assay [3] it was 210 nM; in assay [4], 37 nM.
With `CN(C)[C@@H]1CC[C@@H](c2ccccc2)c2ccccc21` (relative stereo) [II, Trans-(1S)(1R)-N,N-- dimethyl-4-phenyl-1,2,3,4-tetrahydro-1-naphthalenamine hydrochloride, reference compound], the IC50 in assay [3] came to 840 nM; in assay [4], 140 nM.
For the molecule `N[C@@H](Cc1c[nH]c2ccc(O)cc12)C(=O)O` [Example 5HTP, 5-hydroxytryptophan, reference compound], the “behavioral effects of 5HTP by itself” value in assay [2] (mice, 100 mg./kg. i.p. 5HTP alone) is on record as “no clear behavioral effects”.
On to `COCCCC/C(=N\OCCN)c1ccc(C(F)(F)F)cc1` [fluvoxamine], for which the “selective block of uptake of serotonin (compared to norepinephrine blockade)” value in assay [6] is listed as “selectively block the uptake of serotonin”.
With `CN(C)C/C=C(/c1ccc(Br)cc1)c1cccnc1` [zimelidine], the “selective block of uptake of serotonin (compared to norepinephrine blockade)” value in assay [6] was “selectively block the uptake of serotonin”.
